The results in this text go back to ChEMBL document CHEMBL2057202, “Investigation of substituted 6-aminohexanoates as skin penetration enhancers” (Bioorg Med Chem, 2012).

Data set [1] in a line: Lipophilicity, log K of the compound by RP-HPLC analysis. In kind it is physicochemical.
Data set [2] in a line: Potentiation of theophylline transdermal permeation in pig ear skin assessed as enhancement ratio at 20 mg after 24 hrs by Franz diffusion cell method. In kind it is ADME, Sus scrofa.
For another data set, the system named is SK-N-MC. Description: Antiproliferative activity against human SK-N-MC cells after 72 hrs by MTT assay. The data set is classed as cell-based.

Broadly, the IC50 is the midpoint of a concentration-inhibition curve.

In the case of `CCCCCCCCCCCCOC(=O)C(CCCCN1C(=O)CCC1=O)N1CCCCCC1=O` (stereo unspecified), in data set [1], the “log K” value amounted to 0.9081. In data set [2], the Ratio is on record as 2.48. Moreover, the half-maximal inhibitory concentration (IC50) with SK-N-MC was > 6.25 µM.

For the compound `CCCCCCCCCOC(=O)C(CCCCN1C(=O)CCC1=O)N1CCCCCC1=O` (stereo unspecified), in data set [1], the “log K” value came out at 0.4095. In data set [2], the Ratio is listed as 1.87. Besides, the half-inhibitory concentration (IC50) in the data set with SK-N-MC is > 6.25 µM.

Consider `CCCCCCOC(=O)CCCCCN1C(=O)CCC1=O`, for which, in data set [1], the “log K” value is recorded as -0.0201. In addition, the Ratio in data set [2] turned out to be 2.71. For the same compound, in the data set with SK-N-MC, the half-inhibitory concentration (IC50) was > 6.25 µM.

With `CCCCCCCCCCOC(=O)CCCCCN1C(=O)CCC1=O`, in data set [1], the “log K” value turned out to be 0.6548. Further, in data set [2], the Ratio stood at 3.54. In the data set on SK-N-MC, the IC50 was > 6.25 µM.

Regarding `CCCCCCCCOC(=O)CCCCCN1C(=O)CCC1=O`, in data set [1], the “log K” value is reported as 0.3239. Also, the Ratio in data set [2] amounted to 2.55. In the data set on SK-N-MC, the IC50 is > 6.25 µM.

For `CCCCCCCCCOC(=O)CCCCCN1C(=O)CCC1=O`, in data set [1], the “log K” value is given as 0.4901. Besides, the Ratio in data set [2] came to 3.14. Also, in the data set on SK-N-MC, the IC50 is > 6.25 µM.

For the compound `CCCCCCCCCCCCOC(=O)CCCCCN1C(=O)CCC1=O`, in data set [1], the “log K” value is given as 1.0091. The Ratio in data set [2] stood at 2.93. The 50% inhibitory concentration (IC50) in the data set with SK-N-MC is > 6.25 µM.

For `CCCCCCCCCCCOC(=O)C(CCCCN1C(=O)CCC1=O)N1CCCCCC1=O` (stereo unspecified), the “log K” value in data set [1] was 0.7462. The Ratio in data set [2] amounted to 1.81. In the data set on SK-N-MC, the concentration for half-maximal inhibition (IC50) is > 6.25 µM.

For `CCCCCCCC/C=C\CCCCCCCC(=O)O` [OLEIC ACID], the Ratio in data set [2] turned out to be 1.13.

Turning to `CCCCCCOC(=O)C(CCCCN1C(=O)CCC1=O)N1CCCCCC1=O` (stereo unspecified), the “log K” value in data set [1] is on record as -0.0764. In addition, the Ratio in data set [2] is 1.93. Further, the concentration for half-maximal inhibition (IC50) in the data set with SK-N-MC is > 6.25 µM.

Regarding `CCCCCCCCCCCOC(=O)CCCCCN1C(=O)CCC1=O`, in data set [1], the “log K” value came to 0.8368. Further, the Ratio in data set [2] was 3.51. The IC50 in the data set with SK-N-MC is > 6.25 µM.

`CCCCCCCOC(=O)CCCCCN1C(=O)CCC1=O`: in data set [1], the “log K” value came out at 0.15. For the same compound, the Ratio in data set [2] was 2.64. Moreover, the IC50 with SK-N-MC was > 6.25 µM.

Take `CCCCCCCCCCOC(=O)C(CCCCN1C(=O)CCC1=O)N1CCCCCC1=O` (stereo unspecified): in data set [1], the “log K” value is reported as 0.6158. In addition, the IC50 in the data set with SK-N-MC is > 6.25 µM.

Turning to `CCCCCCCOC(=O)C(CCCCN1C(=O)CCC1=O)N1CCCCCC1=O` (stereo unspecified), the “log K” value in data set [1] stood at 0.0658. The IC50 in the data set with SK-N-MC is > 6.25 µM.

For `CCCCCCCCOC(=O)C(CCCCN1C(=O)CCC1=O)N1CCCCCC1=O` (stereo unspecified), the “log K” value in data set [1] is given as 0.2462. For the same compound, the Ratio in data set [2] was 2.24. The half-maximal inhibitory concentration (IC50) with SK-N-MC was > 6.25 µM.
